Experimental data as given in ChEMBL document CHEMBL1949564, “Inhibitory activity of eudesmane sesquiterpenes from Alpinia oxyphylla on production of nitric oxide” (Bioorg Med Chem Lett, 2012).
In brackets after ≈: the same amount, converted by molar mass. Residues, ends and D or L forms follow the SMILES beside them. *: point of attachment. Cbz = O=C(OCc1ccccc1)*

Columns and labels:
RAW264.7 [1] = assay: Antiinflammatory activity in mouse RAW264.7 cells assessed as inhibition of LPS-induced NO production after 5 mins by Greiss method; format: functional, cell-based; details: RAW264.7, 5 min
RAW264.7 [2] = assay: Antiinflammatory activity in mouse RAW264.7 cells assessed as inhibition of IFNgamma-induced NO production after 5 mins by Greiss method; format: functional, cell-based; details: RAW264.7, 5 min

Row | SMILES | IC50 (RAW264.7 [1]) [µg/mL] | IC50 (RAW264.7 [2]) [µg/mL]
1 | CC1=C2C=C(C(C)(O)CO)CC[C@]2(C)CCC1=O (stereo partly drawn) [OXYPHYLLANENE F] | 13.9 (≈ 55.7 µM) | 13.9 (≈ 55.7 µM)
2 | CC(=O)[C@]12CC[C@@]3(C)CCC(=O)C(C)=C3[C@H]1O2 [OXYPHYLLANENE C] | 11 (≈ 47 µM) | 11 (≈ 47 µM)
3 | C=C(C)[C@@H]1CC[C@@]2(C)[C@H](O)CC[C@](C)(O)[C@@H]2C1 (racemic) | 13.5 (≈ 56.8 µM) | 13.5 (≈ 56.8 µM)
4 | C[C@@]12CCC(=O)C=C1[C@@](C)(O)[C@H](O)CC2 [OXYPHYLLENONE A] | 12 (≈ 57 µM) | 12 (≈ 57 µM)
5 | C=C(C)[C@@H]1CC[C@@]2(C)CCC(=O)C(C)=C2[C@@H]1O | 12.5 (≈ 53.4 µM) | 12.5 (≈ 53.4 µM)
6 | CC1=C2C[C@H](C(C)(O)CO)CC[C@@]2(C)CCC1=O (stereo partly drawn) | 13.3 (≈ 52.6 µM) | 13.3 (≈ 52.6 µM)
7 | C=C(C)[C@@H]1CC[C@]2(C)C(=C(C)C(=O)C[C@H]2O)C1 [LIGUCYPERONOL] | 12.1 (≈ 51.8 µM) | 12.1 (≈ 51.8 µM)
8 | C[C@@]12CCC[C@](C)(O)C1=CC(=O)CC2 [TEUHETENONE A] | 12.9 (≈ 66.6 µM) | 12.9 (≈ 66.6 µM)
9 | CC(C)C[C@@H](C=O)NC(=O)[C@H](CC(C)C)NC(=O)[C@H](CC(C)C)NC(=O)OCc1ccccc1 [MG-132] (Cbz-Leu-Leu-Leu-aldehyde) | 0.17 (≈ 0.357 µM) | 0.17 (≈ 0.357 µM)

More lines, now with the values ahead:

Row | IC50 (RAW264.7 [1]) [µg/mL] | IC50 (RAW264.7 [2]) [µg/mL] | SMILES
10 | 11.4 (≈ 48.5 µM) | 11.4 (≈ 48.5 µM) | C=C(C)[C@@]1(O)CC[C@]2(C)CC(=O)C=C(C)[C@H]2C1 [TEUCRENONE]
11 | 9.85 (≈ 39.3 µM) | 9.85 (≈ 39.3 µM) | C=C(C)[C@]1(O)CC[C@@]2(C)CCC(=O)[C@@]3(C)O[C@@]23C1 [OXYPHYLLANENE D]
12 | 11.4 (≈ 48.6 µM) | 11.4 (≈ 48.6 µM) | C=C(C)[C@]1(O)CC[C@@]2(C)CCC(=O)C(C)=C2C1
13 | 13.5 (≈ 57.2 µM) | 13.5 (≈ 57.2 µM) | C=C1[C@@H](O)CC[C@]2(C)CC[C@](O)(C(=C)C)C[C@@H]12 (relative stereo)
14 | 11.6 (≈ 49.6 µM) | 11.6 (≈ 49.6 µM) | C=C(C)[C@]1(O)CC[C@]2(C)CC(=O)C=C(C)[C@H]2C1
